Test system: K562 human chronic myeloid leukaemia cells
Test: K562 assay (MTT cytotoxicity of released compounds)
Type: cell-based
Conditions: drug for 1 hour or 96 hours, MTT readout
Experimental: K562 human chronic myeloid leukaemia cells were maintained in RPM1 1640 medium supplemented with 10% fetal calf serum and 2 mM glutamine at 37° C. in a humidified atmosphere containing 5% CO2 and were incubated with a specified dose of drug for 1 hour or 96 hours at 37° C. in the dark. The incubation was terminated by centrifugation (5 min, 300 g) and the cells were washed once with drug-free medium. Following the appropriate drug treatment, the cells were transferred to 96-well microtiter plates (10^4 cells per well, 8 wells per sample). Plates were then kept in the dark at 37° C. in a humidified atmosphere containing 5% CO2. The assay is based on the ability of viable cells to reduce a yellow soluble tetrazolium salt, 3-(4,5-dimethylthiazol-2-yl)-2,5-diphenyl-2H-tetrazolium bromide (MTT, Aldrich-Sigma), to an insoluble purple formazan precipitate. Following incubation of the plates for 4 days (to allow control cells to increase in number by approximately 10 fold), 20 μL of MTT solution (5 mg/mL in phosphate-buffered saline) was added to each well and the plates further incubated for 5 h. The plates were then centrifuged for 5 min at 300 g and the bulk of the medium pipetted from the cell pellet leaving 10-20 μL per well. […] The optical density was then read at a wavelength of 550 nm on a Titertek Multiscan ELISA plate reader, and a dose-response curve was constructed.

`COc1cc2c(cc1OCCCCCOc1cc3c(cc1OC)C(=O)N1C=C(C)C[C@H]1C=N3)N=C[C@@H]1CC(C)=CN1C2=O` [RelE] showed an IC50 of 0.425 nM.
